SMILES strings stand for the structures.

From patent US11013696B2, “Lipids and lipid compositions for the delivery of active agents” (Novartis AG, priority 2013, dated 2021) come the findings set out here.

For the experiment, the system named is mouse Erythropoietin. The experiment in a line: Mouse EPO ELISA after IV injection of encapsulated mEPO mRNA. The format is in vivo. The settings on record: 0.2 mpk, ob/ob. As to the method: A rat anti-mouse Erythropoietin antibody is coated on 384-well white microtiter plates overnight, then blocked for assay. Then, plasma samples are diluted in a casein-based sample diluent and incubated on the plate with buffer controls and mouse EPO standards. The plate is then washed to remove unbound material. A biotinylated rat anti-mouse Erythropoietin antibody is then added to the plate to detect mouse EPO bound by the capture antibody. The plate is washed again and a streptavidin-conjugated horseradish peroxidase reagent is incubated on the plate. A third wash step is performed and a chemiluminescent reagent is added to the plate and immediately read by a capable plate reader using all wavelengths and a 50 millisecond integration time. Unknown samples are interpolated off the mouse EPO standard curve.

As to `CCCCCCCCCCCCC(CCOC(=O)CCCCC(COC(=O)CCCCCCC)COC(=O)CCCCCCC)OC(=O)OCCCN(CC)CC` (stereo not shown) [Example 1, 2-(10-dodecyl-3-ethyl-8,14-dioxo-7,9,13-trioxa-3-azaoctadecan-18-yl)propane-1,3-diyl dioctanoate], the “Expression of protein following IV injection of encapsulated mRNA” value is given as 247.6 ng/mL.
